Reference: PubChem BioAssay (NCI)
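Five concentrations, 48 hours, 96-well plates. The concentration for full growth arrest is given as TGI.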 Active and inactive are the calls of the source. Rule as the data show it: active = GI50 below about 0.43 µM; inactive = the rest.

What was measured:
Assay in all cases: DTP human tumour cell line panel, 48 h
[1] = tested on: 786-0 renal
[2] = tested on: A498 renal
[3] = tested on: A549 NSCLC
[4] = tested on: ACHN renal
[5] = tested on: BT-549 breast
[6] = tested on: CAKI-1 renal
[7] = tested on: CCRF-CEM leukemia
[8] = tested on: COLO 205 colon
[9] = tested on: DU-145 prostate
[10] = tested on: EKVX NSCLC
[11] = tested on: HCC-2998 colon
[12] = tested on: HCT-116 colon
[13] = tested on: HCT-15 colon
[14] = tested on: HL-60(TB) leukemia
[15] = tested on: HOP-62 NSCLC
[16] = tested on: HOP-92 NSCLC
[17] = tested on: HS 578T breast
[18] = tested on: HT29 colon
[19] = tested on: IGROV1 ovarian
[20] = tested on: K-562 leukemia
[21] = tested on: KM12 colon
[22] = tested on: LOX IMVI melanoma
[23] = tested on: M14 melanoma
[24] = tested on: MALME-3M melanoma
[25] = tested on: MCF7 breast
[26] = tested on: MDA-MB-231 breast
[27] = tested on: MDA-MB-435
[28] = tested on: MDA-N
[29] = tested on: MOLT-4 leukemia
[30] = tested on: NCI-H226 lung
[31] = tested on: NCI-H23 lung
[32] = tested on: NCI-H460 lung
[33] = tested on: NCI-H522 lung
[34] = tested on: NCI/ADR-RES ovarian
[35] = tested on: OVCAR-3 ovarian
[36] = tested on: OVCAR-4 ovarian
[37] = tested on: OVCAR-5 ovarian
[38] = tested on: OVCAR-8 ovarian
[39] = tested on: PC-3 prostate
[40] = tested on: RPMI-8226 leukemia
[41] = tested on: RXF 393 renal
[42] = tested on: SF-268 CNS
[43] = tested on: SF-295 CNS
[44] = tested on: SF-539 CNS
[45] = tested on: SK-MEL-2 melanoma
[46] = tested on: SK-MEL-28 melanoma
[47] = tested on: SK-MEL-5 melanoma
[48] = tested on: SK-OV-3 ovarian
[49] = tested on: SN12C renal
[50] = tested on: SNB-19 CNS
[51] = tested on: SNB-75 CNS
[52] = tested on: SR leukemia
[53] = tested on: SW-620 colon
[54] = tested on: T-47D breast
[55] = tested on: TK-10 renal
[56] = tested on: U251 CNS
[57] = tested on: UACC-257 melanoma
[58] = tested on: UACC-62 melanoma
[59] = tested on: UO-31 renal

Measured: TGI

C#CCN(Cc1cc2c(=O)[nH]c(C)nc2cc1C)c1ccc(C(=O)N[C@@H](CCc2nn[nH]n2)C(=O)O)c(F)c1
inactive: all assays above

C=CCN1C(=O)CNC1=S
77.6 µM: [7]
78.9 µM: [14]
> 100 µM: all other assays above

CCCCCCCCCCCC(=O)N(CCCCCCCCCCC(=O)O)CC(O)C(O)C(OC1OC(CO)C(O)C(O)C1O)C(O)CO (configuration not stated)
> 100 µM: all assays above
